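Following 48 hours of exposure in 96-well plates, responses at five concentrations were used to interpolate endpoints linearly. Here, GI50 denotes the concentration required for 50% inhibition of growth.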 Activity calls are given as the source filed them. No stated cut-off is given here; in the data, active = GI50 up to about 1.1 µM and inactive = higher.
Assays:
Assay in all cases: inhibition of tumour cell growth, NCI panel, 48 h
[1] = test system: BT-549
[2] = test system: LXFL 529
[3] = test system: DMS-114
[4] = test system: KM-20L2
[5] = test system: DLD-1
[6] = test system: RXF 631
[7] = test system: DMS-273
[8] = test system: XF498
[9] = test system: HOP-18

`C[N+]1(C)C2CC(OC(=O)C(CO)c3ccccc3)CC1C1OC12` (stereo not given) was tested, and the GI50 [1] was > 100 µM (inactive).
`Oc1ccc(CCNCc2cc3c(cc2Br)OCO3)cc1` was tested, and the GI50 [1] was 92.5 µM (inactive).
`CC(C)N(CC(=O)O)CC(=O)O` was tested, and the GI50 [1] was > 100 µM (inactive).
`CC(=O)OCC1OC(n2c(N)c(C#N)c(-c3cccc(Cl)c3)c(C#N)c2=S)C(OC(C)=O)C(OC(C)=O)C1OC(C)=O` (stereo not given) was tested, and the GI50 [1] was 20.7 µM (inactive).
`O=C1CC(C(OCc2ccccc2)C(OCc2ccccc2)C(OCc2ccccc2)C(COCc2ccccc2)OCc2ccccc2)CC(=O)N1` (stereo not given) was tested, and the GI50 [1] was > 100 µM (inactive).
In the case of `CC(C)=NN/C(=N\c1ccc(Cl)cc1)NS(=O)(=O)c1cc2ccccc2s1`, the GI50 [1] was 41.9 µM (inactive).
For `C(=N\N=C1NCCCN1)/c1ccc2ccccc2c1`, the GI50 [1] was 17.4 µM (inactive).
In the case of `COC(=O)C1CC2C=CC=CC(=O)C2(C)C1` (stereo not given), the GI50 [2] was 31.2 µM (inactive), the GI50 [3] was 40.4 µM (inactive) and the GI50 [4] was > 100 µM (inactive). For the same compound, the GI50 [5] was 15.6 µM (inactive).
For `COc1ccc(/C=N/Nc2nnc3c(n2)c2ccccc2c2nn(-c4ccccc4Cl)nc23)cc1`, the GI50 [1] was > 100 µM (inactive).
In the case of `C[N+](C)(C)CC(=O)N/N=C(/Cc1cc(=O)oc2cc(O)ccc12)C(=O)Nc1ccc(Cl)cc1`, the GI50 [3] was > 100 µM (inactive), the GI50 [6] was > 100 µM (inactive) and the GI50 [4] was > 100 µM (inactive). For the same compound, the GI50 [5] was > 100 µM (inactive).
For `O=C(O)CCC(C(=O)O)N1C(=O)C2C3CCC(C3)C2C1=O` (stereo not given), the GI50 [1] was > 100 µM (inactive).
`C1=N\CCNCC/N=C\c2ccc(cc2)OCc2cccc(n2)COc2ccc/1cc2` was tested, and the GI50 [1] was 66.4 µM (inactive).
With `CC(C)N(C(=O)C12C3C4C1C1C2C3C41C(O)C(C)(C)C)C(C)C` (stereo not given) the GI50 [7] was > 50 µM (inactive), the GI50 [8] was > 50 µM (inactive) and the GI50 [2] was > 50 µM (inactive). The GI50 [3] was > 50 µM (inactive) and the GI50 [4] was > 50 µM (inactive).
In the case of `COC(=O)c1ccc(C)cc1CC1Cc2c(C)cccc2C1=O` (stereo not given), the GI50 [1] was 4.99 µM (inactive).
For `CO/N=C(\C(=O)[N-]n1cn[n+](CC(=O)OC(C)(C)C)c1)c1csc(NC(c2ccccc2)(c2ccccc2)c2ccccc2)n1`, the GI50 [1] was > 10 µM (inactive).
For `O=C(/C=C1\Nc2ccccc2N=C1NC12CC3CC(CC(C3)C1)C2)c1ccc(Br)cc1`, the GI50 [1] was > 10 µM (inactive).
In the case of `Nc1cc(N2CCOCC2)nc(=O)n1-c1ccc(Cl)cc1`, the GI50 [1] was > 100 µM (inactive).
`COc1ccc(Cn2c(=O)c(OS(=O)(=O)C(F)(F)F)c(C)c3cc4ccccc4cc32)cc1` was tested, and the GI50 [1] was > 100 µM (inactive).
`Nc1cc2c3c(cccc3c1)C(=O)N(c1ccc(OCCN3CCCC3)cc1)C2=O` was tested, and the GI50 [1] was 15.8 µM (inactive).
For `O=C(Cn1cc(I)c(C(=O)NCC(O)CO)n1)NCC(O)CO` (stereo not given), the GI50 [7] was > 100 µM (inactive), the GI50 [8] was > 100 µM (inactive) and the GI50 [2] was > 100 µM (inactive). The GI50 [9] was > 100 µM (inactive), the GI50 [3] was > 100 µM (inactive) and the GI50 [4] was > 100 µM (inactive). For the same compound, the GI50 [5] was > 100 µM (inactive).
For `CC(=O)Nc1ccc2cc(C#N)c(=O)[nH]c2n1`, the GI50 [1] was > 100 µM (inactive).
`CC(C)c1nc(Cl)c(Cl)c(Cl)n1` was tested, and the GI50 [1] was 0.621 µM (active).
In the case of `CC(C)(C)c1cc(C(=O)O)c(C(c2ccccc2)c2ccccc2C(=O)O)c(C(=O)O)c1` (stereo not given), the GI50 [7] was > 100 µM (inactive), the GI50 [8] was > 100 µM (inactive) and the GI50 [2] was > 100 µM (inactive). The GI50 [9] was > 100 µM (inactive), the GI50 [3] was > 100 µM (inactive) and the GI50 [4] was > 100 µM (inactive). For the same compound, the GI50 [5] was > 100 µM (inactive).
In the case of `CCOC(=O)CCSc1nc2ccc(I)cc2c(=O)n1Cc1ccccc1`, the GI50 [1] was 35.6 µM (inactive).
For `CC12CP(=O)(c3ccccc3)CC1c1ccccc1C2c1ccccc1` (stereo not given), the GI50 [1] was > 10 µM (inactive).
For `NC1CC(=O)c2cc(Br)sc21` (stereo not given), the GI50 [1] was > 100 µM (inactive).
`CCCC/C=C/C/C=C/CCCCCCCCC(=O)OCC1CCCN2CCCCC12` (stereo not given) was tested, and the GI50 [1] was 15.6 µM (inactive).
For `CCc1cccc(C)c1N1C(=O)C(=O)C(c2nc3ccccc3o2)C(=O)C1=O`, the GI50 [7] was > 100 µM (inactive), the GI50 [8] was > 100 µM (inactive) and the GI50 [2] was > 100 µM (inactive). The GI50 [9] was > 100 µM (inactive), the GI50 [4] was > 100 µM (inactive) and the GI50 [5] was > 100 µM (inactive).
With `Nc1ccc(C(=O)N/C(=C\c2cccc([N+](=O)[O-])c2)c2nc3ccccc3[nH]2)cc1` the GI50 [7] was 55.2 µM (inactive), the GI50 [8] was 23.5 µM (inactive) and the GI50 [2] was 29.4 µM (inactive). The GI50 [3] was 29.4 µM (inactive), the GI50 [4] was > 87.1 µM (inactive) and the GI50 [5] was 66.8 µM (inactive).
`Cc1ccc(NC(=O)CC2SC(Nc3ccc(Cl)cc3)=NC2=O)cc1C` (stereo not given) was tested, and the GI50 [7] was 19.7 µM (inactive), the GI50 [2] was 19.5 µM (inactive) and the GI50 [9] was 18.5 µM (inactive). For the same compound, the GI50 [3] was 21 µM (inactive), the GI50 [4] was 19.1 µM (inactive) and the GI50 [5] was 18.9 µM (inactive).
With `CC1(C)O[C@@H](CC/C=C/CO)[C@H](CC/C=C/CO)O1` the GI50 [7] was > 100 µM (inactive), the GI50 [8] was > 100 µM (inactive) and the GI50 [2] was > 100 µM (inactive). For the same compound, the GI50 [9] was > 100 µM (inactive), the GI50 [3] was > 100 µM (inactive) and the GI50 [4] was > 100 µM (inactive). The GI50 [5] was > 100 µM (inactive).
With `CC(C)NCCNC(=O)c1ccccc1Nc1c(Cl)cccc1Cl` the GI50 [7] was 13.2 µM (inactive), the GI50 [8] was 2.92 µM (inactive) and the GI50 [2] was 16.9 µM (inactive). The GI50 [3] was 10.9 µM (inactive), the GI50 [4] was 2.73 µM (inactive) and the GI50 [5] was 13 µM (inactive).

Source: ChEMBL document CHEMBL1201862, “PubChem BioAssay data set” (2004)
